# Like-named read-outs stand apart in the source and are kept apart here.
# Legend:
# human recombinant AChE = molecular target: T1, human recombinant AChE (Homo sapiens, UniProt P22303); assay: biochemical
# T1 construct: purchased Sigma-Aldrich
# Procedure: AChE stock solution was prepared by dissolving human recombinant AChE (EC: 3.1.1.7) lyophilized powder (Sigma-Aldrich) in 0.1 M phosphate buffer (pH = 8.0) containing Triton X-100 (0.1 %). […] Increasing concentrations of the tested inhibitor were added to the assay solution and pre-incubated for 5 min at 37 °C with the enzyme followed by the addition of the substrate. Initial rate assays were performed at 37 °C using a Jasco V-530 double beam Spectrophotometer. The absorbance value at 412 nm was recorded for 5 min and enzyme activity was calculated from the slope of the obtained linear trend. Assays were carried out with a blank containing all components except AChE to account for the non-enzymatic reaction. The reaction rates were compared and the percent inhibition due to the presence of tested inhibitors was calculated. […] Tacrine was used as a standard inhibitor.
# [1] = tested on: brine shrimp nauplii (Artemia salina); assay: In vivo cytotoxicity, brine shrimp lethality bioassay; settings: 24 h incubation, 10-80 µg/mL, triplicate
# Procedure: The in vivo cytotoxicity of compounds (1–4) isolated from the leaves of C. lanceolata was evaluated to brine shrimp nauplii using vincristine sulfate as standard (Fig. S1 †ESI). It is one of the most convenient methods to determine the cytotoxicity of any compound.
# Brine shrimp lethality bioassay is commonly used in the bioassay for the bioactive compounds [44, 45]. The in vivo cytotoxicity assay was performed on brine shrimp nauplii (Artemia salina) in accordance with the Mayer method. The egg of brine shrimp were hatched in a tank filled with artificially prepared sea water (brine, 3.8 % NaCl) exposed to incandescent light. Air was supplied at the bottom of the tank with the help of air supplier fitted with tube to keep the shrimps in uniform motion. The assay was performed 24 h after hatching and no food supplement was given during the hatching and experimental periods. A test sample (5.0 mg) was dissolved in 1 mL DMSO to obtain stock solution of 5 mg/mL. Different concentrations of test samples were obtained from stock solution and placed in separate vials, and the volume of each vial was made up to 5 mL with brine to obtain the desired final concentrations (10, 20, 40, 60 and 80 µg/mL). The negative control was prepared in the same manner without the samples. Vincristine sulphate was used as a standard anti-cancer drug. Thirty brine shrimp nauplii were then placed in each vial. After 24 h of incubation, the vials were observed using a magnifying glass, and the number of survivors in each vial were counted and noted. The LD50 values were calculated using the plot of percentage of mortality and logarithm of concentration. All tests were performed in triplicate and expressed as mean.
# [2] = Solubility and air stability of the isolated crystals; assay type: physicochemical; settings: for solubility in organic solvents: all common organic solvents; for stability in air: once isolated
# T1 sequence (P22303 32-614): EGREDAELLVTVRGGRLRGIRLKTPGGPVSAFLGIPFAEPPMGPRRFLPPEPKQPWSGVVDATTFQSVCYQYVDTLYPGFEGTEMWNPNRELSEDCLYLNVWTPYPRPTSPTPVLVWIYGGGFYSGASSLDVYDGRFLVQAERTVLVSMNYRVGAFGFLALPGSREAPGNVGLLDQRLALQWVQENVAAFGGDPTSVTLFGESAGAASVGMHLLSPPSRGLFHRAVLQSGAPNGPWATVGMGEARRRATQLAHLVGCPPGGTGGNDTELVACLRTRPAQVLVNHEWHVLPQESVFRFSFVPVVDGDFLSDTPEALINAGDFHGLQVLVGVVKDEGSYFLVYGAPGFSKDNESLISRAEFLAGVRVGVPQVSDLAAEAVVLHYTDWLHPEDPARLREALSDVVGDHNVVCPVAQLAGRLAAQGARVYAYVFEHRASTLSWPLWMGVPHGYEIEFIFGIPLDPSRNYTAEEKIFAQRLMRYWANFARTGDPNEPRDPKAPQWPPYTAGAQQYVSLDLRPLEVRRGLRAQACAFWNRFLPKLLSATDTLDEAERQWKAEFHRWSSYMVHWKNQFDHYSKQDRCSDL
SMILES,LD50 value [1] [µg/mL],IC50 (human recombinant AChE) [µM],solubility in organic solvents [2],stability in air [2],solubility in water [2],further results
"Cc1c(C(=O)O)ccc(O)c1O [Compound 1, 3,4-dihydroxy-2-methylbenzoic acid]",23.40 ± 0.02,–,–,–,–,"IC50 (human recombinant AChE; human recombinant AChE, pH 8.0, 37 °C, substrate acetylthiocholine iodide 550 µM, triplicate, read-out: IC50 ± SEM for hAChE inhibition): 23.7 ± 0.02 µM; LD50 value ([1]; listed as compound 1): 23.40 µg/mL"
"Oc1ccc2ccccc2c1-c1c(O)ccc2ccccc12 [Compound 2, 2,2′-dihydroxy-1,1′-binaphthyl]",17.78 ± 0.05,21.9 ± 0.05,soluble in all common organic solvents,air-stable,insoluble in water,LD50 value ([1]; listed as compound 2): 17.78 µg/mL
"Cc1cc(O)c2c(c1)C(=O)c1cc(O)cc(O)c1C2=O [Compound 3, 1,3,8-trihydroxy-6-methylanthracene-9,10-dione]",13.80 ± 0.03,14.2 ± 0.06,–,–,–,LD50 value ([1]; listed as compound 3): 13.80 µg/mL
"COc1cc(/C=C/C(=O)/C=C(O)/C=C/c2ccc(O)c(OC)c2)ccc1O [Compound 4, 5-hydroxy-1,7-bis(4-hydroxy-3-methoxyphenyl)hepta-1,4,6-trien-3-one]",11.66 ± 0.04,–,soluble in all common organic solvents,air-stable,insoluble in water,LD50 value ([1]; listed as compound 4): 11.66 µg/mL
"CC[C@]1(O)C[C@H]2CN(CCc3c([nH]c4ccccc34)[C@@](C(=O)OC)(c3cc4c(cc3OC)N(C=O)[C@H]3[C@@](O)(C(=O)OC)[C@H](OC(C)=O)[C@]5(CC)C=CCN6CC[C@]43[C@@H]65)C2)C1 [Vincristine sulphate, reference compound]",8.84 ± 0.01,–,–,–,–,LD50 value ([1]; listed as vincristine sulfate): 8.84 µg/mL

# From publication PMC5136371, “Acetylcholinesterase and Cytotoxic Activity of Chemical Constituents of Clutia lanceolata Leaves and its Molecular Docking Study” (Natural Products and Bioprospecting, 2016)
